Test results reported in patent publication US9743665B2, “Fungicidal 3-{phenyl[heterocyclylmethoxy)imino]methyl}-oxadiazolone derivatives” (BAYER CROPSCIENCE AKTIENGESELLSCHAFT, priority 2013, dated 2017).
Marks after values point to notes of the source that are not given here.

Legend:
Phytophthora infestans [1] = type: in vivo; details: tomato plants, preventive spray, 500 ppm of active ingredient, evaluated 5 days after inoculation
Septoria tritici = assay: Example G: in vivo preventive test on Septoria tritici (leaf spot on wheat); details: wheat plants, preventive spray, 500 ppm of active ingredient, evaluated 24 days after inoculation
Protocol: Example G: In Vivo Preventive Test on Septoria tritici (Leaf Spot on Wheat)
(§1) The tested active ingredients are prepared by homogenization in a mixture of acetone/Dimethyl sulfoxide/Tween®, and then diluted with water to obtain the desired active material concentration.
(§2) The young plants of wheat are treated by spraying the active ingredient prepared as described above. Control plants are treated only with an aqueous solution of acetone/Dimethyl sulfoxide/Tween®.
After 24 hours, the plants are contaminated by spraying the leaves with an aqueous suspension of Septoria tritici spores. The contaminated wheat plants are incubated for 72 hours at 18° C. and at 100% relative humidity and then for 21 days at 20° C. and at 90% relative humidity.
The test is evaluated 24 days after the inoculation. 0% means an efficacy which corresponds to that of the control plants while an efficacy of 100% means that no disease is observed.

[2] = pH 2.7
Protocol: (§4) Measurement of IogP values was performed according EEC directive 79/831 Annex V.A8 by HPLC (High Performance Liquid Chromatography) on reversed phase columns with the following methods:
(§5) Measurement of LC-MS was done at pH 2.7 with 0.1% formic acid in water and with acetonitrile (contains 0.1% formic acid) as eluent with a linear gradient from 10% acetonitrile to 95% acetonitrile.
(§6) Calibration was done with not branched alkan2-ones (with 3 to 16 carbon atoms) with known logP-values (measurement of logP values using retention times with linear interpolation between successive alkanones). lambda-maX-values were determined using UV-spectra from 200 nm to 400 nm and the peak values of the chromatographic signals.

Pyrenophora teres = assay: Example E: in vivo preventive test on Pyrenophora teres (net blotch on barley); details: barley plants, preventive spray, 500 ppm of active ingredient, evaluated 14 days after inoculation
Protocol: Example E: In Vivo Preventive Test on Pyrenophora teres (Net Blotch on Barley)
as §1
The young plants of barley are treated by spraying the active ingredient prepared as described above. Control plants are treated only with an aqueous solution of acetone/Dimethyl sulfoxide/Tween®.
After 24 hours, the plants are contaminated by spraying the leaves with an aqueous suspension of Pyrenophora teres spores. The contaminated barley plants are incubated for 48 hours at 20° C. and at 100% relative humidity and then for 12 days at 20° C. and at 70-80% relative humidity.
The test is evaluated 14 days after the inoculation. 0% means an efficacy which corresponds to that of the control plants while an efficacy of 100% means that no disease is observed.

Plasmopara viticola = assay: Example J: Plasmopara test (grapevines)/preventive; type: in vivo; details: grapevine plants, preventive spray, 10 ppm of active ingredient, evaluated 6 days after inoculation
Protocol: Example J: Plasmopara Test (Grapevines)/Preventive
To produce a suitable preparation of active compound, 1 part by weight of active compound is mixed with the stated amounts of solvent and emulsifier, and the concentrate is diluted with water to the desired concentration.
To test for preventive activity, young plants are sprayed with the preparation of active compound at the stated rate of application. After the spray coating has dried on, the plants are inoculated with an aqueous spore suspension of Plasmopara viticola and then remain for 1 day in an incubation cabinet at approximately 20° C. and a relative atmospheric humidity of 100%. The plant is subsequently placed for 4 days in a greenhouse at approximately 21° C. and a relative atmospheric humidity of approximately 90%. The plants are then misted and placed for 1 day in an incubation cabinet.
The test is evaluated 6 days after the inoculation. 0% means an efficacy which corresponds to that of the untreated control, while an efficacy of 100% means that no disease is observed.

Phytophthora infestans [3] = type: in vivo; details: tomato plants, preventive spray (DMF/alkylaryl polyglycol ether), 500 ppm of active ingredient, evaluated 7 days after inoculation
[4] = pH 2.7; remark: listed apart in the source
Protocol: as §4, §5, §6

Alternaria brassicae = assay: Example A: in vivo preventive test on Alternaria brassicae (leaf spot on radish); details: radish plants, preventive spray, 500 ppm of active ingredient, evaluated 6 days after inoculation
Protocol: Example A: In Vivo Preventive Test on Alternaria brassicae (Leaf Spot on Radish)
as §1
The young plants of radish are treated by spraying the active ingredient prepared as described above. Control plants are treated only with an aqueous solution of acetone/Dimethyl sulfoxide/Tween®.
After 24 hours, the plants are contaminated by spraying the leaves with an aqueous suspension of Alternaria brassicae spores. The contaminated radish plants are incubated for 6 days at 20° C. and at 100% relative humidity.
The test is evaluated 6 days after the inoculation. 0% means an efficacy which corresponds to that of the control plants while an efficacy of 100% means that no disease is observed.

Pyricularia oryzae = type: in vivo; details: rice plants, preventive spray, 500 ppm of active ingredient, evaluated 6 days after inoculation
Botrytis cinerea = assay: Example B: in vivo preventive test on Botrytis cinerea (grey mould); details: gherkin plants, preventive spray, 500 ppm of active ingredient, evaluated 4 to 5 days after inoculation
Protocol: Example B: In Vivo Preventive Test on Botrytis cinerea (Grey Mould)
as §1
The young plants of gherkin are treated by spraying the active ingredient prepared as described above. Control plants are treated only with an aqueous solution of acetone/Dimethyl sulfoxide/Tween®.
After 24 hours, the plants are contaminated by spraying the leaves with an aqueous suspension of Botrytis cinerea spores. The contaminated gherkin plants are incubated for 4 to 5 days at 17° C. and at 90% relative humidity.
The test is evaluated 4 to 5 days after the inoculation. 0% means an efficacy which corresponds to that of the control plants while an efficacy of 100% means that no disease is observed.

Uromyces appendiculatus = assay: Example H: in vivo preventive test on Uromyces appendiculatus (bean rust); details: bean plants, preventive spray, 500 ppm of active ingredient, evaluated 11 days after inoculation
Protocol: Example H: In Vivo Preventive Test on Uromyces appendiculatus (Bean Rust)
as §1
The young plants of bean are treated by spraying the active ingredient prepared as described above. Control plants are treated only with an aqueous solution of acetone/Dimethyl sulfoxide/Tween®.
After 24 hours, the plants are contaminated by spraying the leaves with an aqueous suspension of Uromyces appendiculatus spores. The contaminated bean plants are incubated for 24 hours at 20° C. and at 100% relative humidity and then for 10 days at 20° C. and at 70-80% relative humidity.
(§3) The test is evaluated 11 days after the inoculation. 0% means an efficacy which corresponds to that of the control plants while an efficacy of 100% means that no disease is observed.

Puccinia recondita = assay: Example D: in vivo preventive test on Puccinia recondita (brown rust on wheat); details: wheat plants, preventive spray, 500 ppm of active ingredient, evaluated 11 days after inoculation
Protocol: Example D: In Vivo Preventive Test on Puccinia recondita (Brown Rust on Wheat)
as §1, §2
After 24 hours, the plants are contaminated by spraying the leaves with an aqueous suspension of Puccinia recondita spores. The contaminated wheat plants are incubated for 24 hours at 20° C. and at 100% relative humidity and then for 10 days at 20° C. and at 70-80% relative humidity.
as §3

Compound	% efficacy (Phytophthora infestans [1])	% efficacy (Septoria tritici)	LogP [2]	further results
Cn1c(/C(=N\OCc2nc(C(=O)NC(C)(C)C)cs2)c2ccccc2)noc1=O [Example 5]	100%	86%	3.22^[a]	–
Cn1c(/C(=N\OCc2nc(NC(=O)OC(C)(C)C)cs2)c2ccccc2)noc1=O [Example 6]	100%	–	3.64^[a]	% efficacy (Pyrenophora teres): 80%; Eff. % (Plasmopara viticola): 99%
CCCCCOC(=O)Nc1ccn(CO/N=C(/c2ccccc2)c2nc(=O)on2C)n1 [Example 7, pentyl {1-[({[(Z)-(2-methyl-5-oxo-2,5-dihydro-1,2,4-oxadiazol-3-yl)(phenyl)methylene]amino}oxy)methyl]-1H-pyrazol-3-yl}carbamate]	–	–	–	Eff. % (Phytophthora infestans [3]): 100%; Eff. % (Plasmopara viticola): 85%; chromatographic logP [4]: 3.06
Cn1c(/C(=N\OCc2nc(C#CC3CC3)cs2)c2ccccc2)noc1=O [Example 10]	100%	–	3.56^[a]	% efficacy (Alternaria brassicae): 97%
Cn1c(/C(=N\OCc2nc(C#Cc3ccc(F)cc3)cs2)c2ccccc2)noc1=O [Example 13]	95%	–	4.09^[a]	% efficacy (Pyricularia oryzae): 79%
Cn1c(/C(=N\OCc2nc(C(=O)NCCc3ccccc3)cs2)c2ccccc2)noc1=O [Example 15]	100%	–	3.27^[a]	% efficacy (Botrytis cinerea): 73%; Eff. % (Plasmopara viticola): 75%
Cn1c(/C(=N\OCc2nc(C(=O)Nc3ccccc3)cs2)c2ccccc2)noc1=O [Example 16]	80%	79%	3.29^[a]	% efficacy (Pyrenophora teres): 71%
CCCCCCNC(=O)c1csc(CO/N=C(/c2ccccc2)c2noc(=O)n2C)n1 [Example 18]	99%	–	3.76^[a]	% efficacy (Pyrenophora teres): 71%; % efficacy (Uromyces appendiculatus): 72%
Cn1c(/C(=N\OCc2nc(C#CCCCc3ccccc3)cs2)c2ccccc2)noc1=O [Example 20]	90%	–	4.68^[a]	% efficacy (Puccinia recondita): 78%; % efficacy (Uromyces appendiculatus): 81%
Cn1c(/C(=N\OCc2nc(/C=C/C3CCCCC3)cs2)c2ccccc2)noc1=O [Example 29]	83%	79%	5.39^[a]	–
Cn1c(/C(=N\OCc2nc(/C=C/C3CC3)cs2)c2ccccc2)noc1=O [Example 34]	100%	86%	3.90^[a]	–
